“And” between values parts separate entries of the source, which are not always exact repeats. Equal entries are not always repeated. Toxic doses and inconclusive results are not listed.
System: C3H/He mice, Gardner lymphosarcoma 6C3HED ip, survival T/C
Experiment: NCI In Vivo Anticancer Drug Screen. Data for tumor model Lymphosarcoma Gardner 6C3HED (intraperitoneal) in C3H/He mice
Details: higher = longer survival
Method: The antitumor activity of compounds was measured in mice bearing transplantable tumors. Survival or tumor size were measured and the results are expressed as the measurement made in the treated group (T) divided by the measurement made in the vehicle treated control group (C). The tumor model used in this assay is Lymphosarcoma Gardner 6C3HED (intraperitoneal) in C3H/He mice

[1] = endpoint: survival time, mean or median, dose: 12.5 mg/kg/injection, schedule: Q01DX010 (ip), vehicle: saline
[2] = endpoint: survival time, mean or median, dose: 50.0 mg/kg/injection, schedule: Q01DX010 (ip), vehicle: saline
[3] = endpoint: survival time, mean or median, dose: 100.0 mg/kg/injection, schedule: Q01DX010 (ip), vehicle: saline
[4] = endpoint: survival time, mean or median, dose: 12.5 mg/kg/injection, schedule: Q01DX010 (sc), vehicle: steriod suspending solution
[5] = endpoint: survival time, mean or median, dose: 25.0 mg/kg/injection, schedule: Q01DX010 (sc), vehicle: steriod suspending solution
[6] = endpoint: survival time, mean or median, dose: 50.0 mg/kg/injection, schedule: Q01DX010 (sc), vehicle: steriod suspending solution
[7] = endpoint: survival time, mean or median, dose: 125.0 micrograms/kg/injection, schedule: Q01DX010 (ip), vehicle: saline
[8] = endpoint: survival time, mean or median, dose: 250.0 micrograms/kg/injection, schedule: Q01DX010 (ip), vehicle: saline
[9] = endpoint: median survival time, dose: 100.0 mg/kg/injection, schedule: Q01DX005 (ip), vehicle: water
[10] = endpoint: median survival time, dose: 200.0 mg/kg/injection, schedule: Q01DX005 (ip), vehicle: water

For Nc1ncnc2c1ncn2C1OC(CO)C(O)C1O (configuration not stated), the T/C (endpoint: median survival time, dose: 12.5 mg/kg/injection, schedule: Q01DX003 (ip), vehicle: saline) was 90 % of control, the T/C (endpoint: median survival time, dose: 12.5 mg/kg/injection, schedule: Q11DX018 (ip), vehicle: saline with Tween-80) was 96 % of control and the T/C (endpoint: median survival time, dose: 12.5 mg/kg/injection, schedule: Q12HX006 (ip), vehicle: saline) was 108 % of control. The T/C (endpoint: median survival time, dose: 25.0 mg/kg/injection, schedule: Q01DX003 (ip), vehicle: saline) was 95 % of control, the T/C (endpoint: median survival time, dose: 25.0 mg/kg/injection, schedule: Q12HX006 (ip), vehicle: saline) was 112 % of control and the T/C (endpoint: median survival time, dose: 50.0 mg/kg/injection, schedule: Q01DX003 (ip), vehicle: saline) was 100 % of control. The T/C (endpoint: median survival time, dose: 50.0 mg/kg/injection, schedule: Q12HX006 (ip), vehicle: saline) was 120 % of control.

With Nc1nc2n[nH]nc2c(=O)[nH]1 the T/C (endpoint: survival time, mean or median, dose: 25.0 mg/kg/injection, schedule: Q01DX010 (ip), vehicle: alkali diluted with saline) was 109 % of control, the T/C (endpoint: survival time, mean or median, dose: 50.0 mg/kg/injection, schedule: Q01DX010 (ip), vehicle: alkali diluted with saline) was 115 % of control and 118 % of control and the T/C (endpoint: survival time, mean or median, dose: 100.0 mg/kg/injection, schedule: Q01DX010 (ip), vehicle: alkali diluted with saline) was 120 % of control. For the same molecule, the T/C (endpoint: survival time, mean or median, dose: 200.0 mg/kg/injection, schedule: Q01DX010 (ip), vehicle: alkali diluted with saline) was 100 % of control.

O=P1(N(CCCl)CCCl)NCCCO1 (configuration not stated) was tested, and the T/C (endpoint: median survival time, dose: 12.5 mg/kg/injection, schedule: Q01DX007 (ip), vehicle: saline) was 116 % of control, the T/C (endpoint: median survival time, dose: 20.0 mg/kg/injection, schedule: Q01DX003 (ip), vehicle: saline) was 163 % of control and the T/C (endpoint: median survival time, dose: 25.0 mg/kg/injection, schedule: Q01DX007 (ip), vehicle: saline) was 116 % of control. The T/C (endpoint: median survival time, dose: 40.0 mg/kg/injection, schedule: Q01DX003 (ip), vehicle: saline) was 209 % of control and 724 % of control, the T/C (endpoint: median survival time, dose: 80.0 mg/kg/injection, schedule: Q01DX003 (ip), vehicle: saline) was 190 % of control and 722 % of control and the T/C (endpoint: survival time, mean or median, dose: 6.25 mg/kg/injection, schedule: Q01DX010 (ip), vehicle: saline) was 100 % of control. The T/C [1] was 115 % of control and the T/C [2] was 115 % of control.

With CS(=O)(=O)OCCC(=O)N1CCN(C(=O)CCOS(C)(=O)=O)CC1 the T/C [2] was 207 % of control and 267 % of control.

Nc1c(Br)cc2c(c1Br)Cc1cc([N+](=O)[O-])ccc1-2 was tested, and the T/C (endpoint: survival time, mean or median, dose: 7.8 mg/kg/injection, schedule: Q01DX010 (ip), vehicle: saline) was 92 % of control.

In the case of CN(C)/N=N/c1nc[nH]c1C(N)=O, the T/C (endpoint: survival time, mean or median, dose: 25.0 mg/kg/injection, schedule: Q01DX010 (ip), vehicle: saline) is reported as 300 % of control, the T/C [2] is reported as 300 % of control and 311 % of control and the T/C [3] is reported as 266 % of control and 300 % of control. For the same molecule, the T/C (endpoint: survival time, mean or median, dose: 200.0 mg/kg/injection, schedule: Q01DX010 (ip), vehicle: saline) was 118 % of control and 296 % of control.

With C[C@]12C=CC(=O)C=C1CC[C@@H]1[C@@H]2[C@@H](O)C[C@@]2(C)[C@H]1CC[C@]2(O)C(=O)CO the T/C [4] was 95 % of control and 100 % of control, the T/C [5] was 90 % of control and 110 % of control and the T/C [6] was 95 % of control and 105 % of control. The T/C (endpoint: survival time, mean or median, dose: 100.0 mg/kg/injection, schedule: Q01DX010 (sc), vehicle: steriod suspending solution) was 95 % of control and 110 % of control.

For Cc1cc2nc3c(=O)[nH]c(=O)nc-3n(CC(O)C(O)C(O)C(O)CO)c2cc1C (configuration not stated), the T/C [1] was 97 % of control, the T/C [2] was 100 % of control and the T/C [3] was 87 % of control and 100 % of control.

With O[C@H](CN1CC1)[C@@H](O)CN1CC1 the T/C [7] was 103 % of control, the T/C [8] was 114 % of control and 203 % of control and the T/C (endpoint: survival time, mean or median, dose: 500.0 micrograms/kg/injection, schedule: Q01DX010 (ip), vehicle: saline) was 169 % of control.

In the case of CC(=O)O[C@]1(C(C)=O)CC[C@H]2[C@@H]3C[C@H](C)C4=CC(=O)C=C[C@]4(C)[C@@]3(F)[C@@H](O)C[C@@]21C, the T/C (endpoint: survival time, mean or median, dose: 6.25 mg/kg/injection, schedule: Q01DX010 (sc), vehicle: steriod suspending solution) is reported as 100 % of control, the T/C [4] is reported as 96 % of control and the T/C [5] is reported as 92 % of control. For the same molecule, the T/C [6] was 92 % of control.

With NC(CC(=O)O)C(=O)O (configuration not stated) the T/C (endpoint: median survival time, dose: 50.0 mg/kg/injection, schedule: Q01DX005 (ip), vehicle: water) was 88 % of control, the T/C [9] was 92 % of control and the T/C [10] was 92 % of control.

For NC(CC(=O)NO)C(=O)O (configuration not stated), the T/C [9] was 96 % of control, the T/C [10] was 107 % of control and the T/C (endpoint: median survival time, dose: 400.0 mg/kg/injection, schedule: Q01DX005 (ip), vehicle: water) was 115 % of control. The T/C (endpoint: median survival time, dose: 800.0 mg/kg/injection, schedule: Q01DX005 (ip), vehicle: water) was 111 % of control.

In the case of CC(=O)NC1=C(N2CC2)C(=O)C(NC(C)=O)=C(N2CC2)C1=O, the T/C (endpoint: survival time, mean or median, dose: 0.13 mg/kg/injection, schedule: Q01DX010 (ip), vehicle: saline) is reported as 117 % of control, the T/C (endpoint: survival time, mean or median, dose: 0.25 mg/kg/injection, schedule: Q01DX010 (ip), vehicle: saline) is reported as 92 % of control and the T/C (endpoint: survival time, mean or median, dose: 0.5 mg/kg/injection, schedule: Q01DX010 (ip), vehicle: saline) is reported as 103 % of control. The T/C (endpoint: survival time, mean or median, dose: 63.0 micrograms/kg/injection, schedule: Q01DX010 (ip), vehicle: saline) was 170 % of control, the T/C [7] was 204 % of control and the T/C [8] was 114 % of control.

For NC(Cc1ccc(N(CCCl)CCCl)cc1)C(=O)O (configuration not stated), the T/C (endpoint: survival time, mean or median, dose: 1.25 mg/kg/injection, schedule: Q01DX010 (ip), vehicle: saline) was 107 % of control and the T/C (endpoint: survival time, mean or median, dose: 5.0 mg/kg/injection, schedule: Q01DX010 (ip), vehicle: saline) was 89 % of control and 119 % of control.

With COc1cc2c(c(OC)c1OC)-c1ccc(OC)c(=O)cc1[C@@H](NC(C)=O)CC2 the T/C (endpoint: survival time, mean or median, dose: 0.01 mg/kg/injection, schedule: Q01DX010 (ip), vehicle: saline) was 100 % of control, the T/C (endpoint: survival time, mean or median, dose: 0.02 mg/kg/injection, schedule: Q01DX010 (ip), vehicle: saline) was 103 % of control and the T/C (endpoint: survival time, mean or median, dose: 0.04 mg/kg/injection, schedule: Q01DX010 (ip), vehicle: saline) was 100 % of control. The T/C (endpoint: survival time, mean or median, dose: 0.08 mg/kg/injection, schedule: Q01DX010 (ip), vehicle: saline) was 121 % of control.

In the case of C[N+](C)(C)c1ncnc2nc[nH]c12, the T/C (endpoint: survival time, mean or median, dose: 15.0 mg/kg/injection, schedule: Q01DX010 (ip), vehicle: saline) is reported as 92 % of control and the T/C (endpoint: survival time, mean or median, dose: 30.0 mg/kg/injection, schedule: Q01DX010 (ip), vehicle: saline) is reported as 96 % of control.

For O=[n+]1c2c(n([O-])c3ccccc31)-c1cccc3cccc-2c13, the T/C (endpoint: survival time, mean or median, dose: 3.13 mg/kg/injection, schedule: Q01DX010 (ip), vehicle: saline) was 86 % of control.

With O=c1[nH]c(=O)n(C2CC(O)C(CO)O2)cc1C(F)(F)F (configuration not stated) the T/C (endpoint: survival time, mean or median, dose: 31.3 mg/kg/injection, schedule: Q01DX010 (ip), vehicle: saline) was 119 % of control, the T/C (endpoint: survival time, mean or median, dose: 62.5 mg/kg/injection, schedule: Q01DX010 (ip), vehicle: saline) was 119 % of control and the T/C (endpoint: survival time, mean or median, dose: 125.0 mg/kg/injection, schedule: Q01DX010 (ip), vehicle: saline) was 100 % of control.

With CC(N)(CC(=O)O)C(=O)O (configuration not stated) the T/C (endpoint: median survival time, dose: 3.12 mg/kg/injection, schedule: Q01DX009 (ip), vehicle: saline) was 90 % of control and 98 % of control, the T/C (endpoint: median survival time, dose: 6.25 mg/kg/injection, schedule: Q01DX009 (ip), vehicle: saline) was 96 % of control and the T/C (endpoint: median survival time, dose: 12.5 mg/kg/injection, schedule: Q01DX009 (ip), vehicle: saline) was 92 % of control and 99 % of control. For the same molecule, the T/C (endpoint: median survival time, dose: 25.0 mg/kg/injection, schedule: Q01DX009 (ip), vehicle: saline) was 86 % of control and the T/C (endpoint: median survival time, dose: 50.0 mg/kg/injection, schedule: Q01DX009 (ip), vehicle: saline) was 101 % of control.

In the case of CN1CC[C@]23c4c5ccc(O)c4O[C@H]2C(=O)CC[C@H]3[C@H]1C5, the T/C (endpoint: survival time, mean or median, dose: 4.0 mg/kg/injection, schedule: Q01DX010 (ip), vehicle: saline) is reported as 103 % of control, the T/C (endpoint: survival time, mean or median, dose: 8.0 mg/kg/injection, schedule: Q01DX010 (ip), vehicle: saline) is reported as 100 % of control and the T/C (endpoint: survival time, mean or median, dose: 16.0 mg/kg/injection, schedule: Q01DX010 (ip), vehicle: saline) is reported as 103 % of control. The T/C (endpoint: survival time, mean or median, dose: 32.0 mg/kg/injection, schedule: Q01DX010 (ip), vehicle: saline) was 90 % of control and 100 % of control.

For CCC(=O)O[C@H]1CC[C@H]2[C@@H]3CCC4=CC(=O)CC[C@]4(C)[C@H]3CC[C@]12C, the T/C (endpoint: survival time, mean or median, dose: 62.5 mg/kg/injection, schedule: Q01DX010 (sc), vehicle: steriod suspending solution) was 90 % of control, the T/C (endpoint: survival time, mean or median, dose: 125.0 mg/kg/injection, schedule: Q01DX010 (sc), vehicle: steriod suspending solution) was 90 % of control and the T/C (endpoint: survival time, mean or median, dose: 250.0 mg/kg/injection, schedule: Q01DX010 (sc), vehicle: steriod suspending solution) was 96 % of control. For the same molecule, the T/C (endpoint: survival time, mean or median, dose: 500.0 mg/kg/injection, schedule: Q01DX010 (sc), vehicle: steriod suspending solution) was 100 % of control.
